Experimental data reported in PubChem BioAssay (NCI).
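48-hour exposure; five concentrations; linearly interpolated endpoints. GI50 = concentration required for 50% inhibition of growth. TGI is the concentration that stops growth completely.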

Columns and labels:
Test in all cases: NCI tumour cell line growth inhibition, 48 h
[1] = system: OVCAR-8 ovarian
[2] = system: NCI-H23 lung
[3] = system: UACC-257 melanoma
[4] = system: LOX IMVI melanoma
[5] = system: PC-3 prostate
[6] = system: MALME-3M melanoma
[7] = system: T-47D breast
[8] = system: SNB-19 CNS

O=c1c2c(=NCCN3CCCC3)cc3c(=O)n(CCCN4CCOCC4)c(=O)c4c(-c5ccc(CN6CCCC6)cc5)cc(c(O)n1CCCN1CCOCC1)c2c4-3
GI50 [1]: < 0.0255 µM | TGI [1]: 2.24 µM | GI50 [2]: 0.0261 µM | TGI [2]: 0.158 µM | GI50 [3]: 0.194 µM | TGI [3]: 1.33 µM | GI50 [4]: 0.0369 µM | TGI [4]: 0.234 µM | GI50 [5]: 0.0278 µM | TGI [5]: 0.168 µM | GI50 [6]: 0.105 µM | TGI [6]: 0.388 µM | GI50 [7]: 0.1 µM | TGI [7]: 0.897 µM | GI50 [8]: 0.054 µM | TGI [8]: 1.2 µM

NNC(=S)N/N=C(\C(=O)Nc1cccc(O)c1)C1C(=O)NC(=S)NC1=O
TGI [1]: > 100 µM | TGI [3]: > 100 µM | TGI [4]: > 100 µM | TGI [5]: > 100 µM | TGI [6]: > 100 µM | TGI [7]: > 100 µM | TGI [8]: > 100 µM

c1cc(NNc2cccc(-c3nn[nH]n3)c2)cc(-c2nn[nH]n2)c1
TGI [1]: > 100 µM | TGI [2]: > 100 µM | TGI [3]: > 100 µM | TGI [4]: > 100 µM | TGI [5]: > 100 µM | TGI [6]: > 100 µM | TGI [7]: > 100 µM | TGI [8]: > 100 µM

CCC(C)[C@H]1O[C@]2(CC[C@@H]1C)C[C@@H]1C[C@@H](C/C=C(\C)[C@@H](OC3C[C@H](OC)C(O[C@H]4C[C@H](OC)[C@@H](O)[C@H](C)O4)[C@H](C)O3)[C@@H](C)/C=C/C=C3\CO[C@@H]4[C@H](O)C(C)=C[C@@H](C(=O)O1)[C@]34O)O2 (some centres not stated)
GI50 [1]: 3.06 µM | TGI [1]: 12.5 µM | GI50 [2]: 3.21 µM | TGI [2]: 13.7 µM | GI50 [3]: 2.17 µM | TGI [3]: 6.25 µM | GI50 [4]: 2.3 µM | TGI [4]: 5.79 µM | GI50 [5]: 2.64 µM | TGI [5]: 12.8 µM | GI50 [6]: 2.74 µM | TGI [6]: 14.5 µM | GI50 [7]: 1.57 µM | TGI [7]: 3.35 µM | GI50 [8]: 3.75 µM | TGI [8]: 15.6 µM

O=C(CC(Cl)=C(Cl)Cl)Nc1ccccc1
GI50 [1]: > 100 µM | TGI [1]: > 100 µM | GI50 [2]: > 100 µM | TGI [2]: > 100 µM | GI50 [3]: > 100 µM | TGI [3]: > 100 µM | GI50 [4]: > 100 µM | TGI [4]: > 100 µM | GI50 [5]: > 100 µM | TGI [5]: > 100 µM | GI50 [6]: > 100 µM | TGI [6]: > 100 µM | GI50 [7]: > 100 µM | TGI [7]: > 100 µM | GI50 [8]: > 100 µM | TGI [8]: > 100 µM

C/C(=N\NC(=S)N1CCCCC1)c1ccccn1
GI50 [1]: < 0.01 µM | TGI [1]: 2.42 µM | GI50 [2]: < 0.01 µM | TGI [2]: 9.71 µM | GI50 [3]: < 0.01 µM | TGI [3]: 0.442 µM | GI50 [4]: < 0.0106 µM | TGI [4]: 9.03 µM | GI50 [5]: < 0.01 µM | TGI [5]: 12.6 µM | GI50 [6]: 0.145 µM | TGI [6]: 3.05 µM | GI50 [7]: < 0.01 µM | TGI [7]: 5.15 µM | GI50 [8]: 0.158 µM | TGI [8]: 14.5 µM

CCN(CC)c1ccc(/C=N/NC(=O)CSc2nc3ccccc3c(=O)n2CCc2ccc(S(N)(=O)=O)cc2)c(O)c1
GI50 [1]: 1.03 µM | TGI [1]: > 100 µM | GI50 [2]: 2.99 µM | TGI [2]: > 100 µM | GI50 [3]: 3.25 µM | TGI [3]: 69.1 µM | GI50 [4]: 1.09 µM | TGI [4]: 6.66 µM | GI50 [5]: 1.83 µM | TGI [5]: > 100 µM | GI50 [6]: 3.26 µM | TGI [6]: > 100 µM | GI50 [7]: 1.01 µM | TGI [7]: > 100 µM | GI50 [8]: 3.72 µM | TGI [8]: > 100 µM

COc1cc(Nc2nc3cc(N)cc(N)c3nc2-c2ccccc2)cc(OC)c1OC
GI50 [1]: 15.3 µM | TGI [1]: 34.9 µM | GI50 [2]: 24.9 µM | TGI [2]: 76.7 µM | GI50 [3]: 29.6 µM | TGI [3]: > 100 µM | GI50 [4]: 18.5 µM | TGI [4]: 49 µM | GI50 [5]: 14.2 µM | TGI [5]: 59.3 µM | GI50 [6]: 13 µM | TGI [6]: 28.2 µM | GI50 [7]: 6.07 µM | TGI [7]: 27.3 µM | GI50 [8]: 33.1 µM | TGI [8]: > 100 µM

COc1ccc2c(c1OC)C[C@@H]1c3c(cc4c(c3-2)OCO4)CCN1C
TGI [1]: > 100 µM | TGI [2]: > 100 µM | TGI [3]: 61 µM | TGI [4]: 29.1 µM | TGI [5]: 89.2 µM | TGI [6]: > 100 µM | TGI [7]: 90.2 µM | TGI [8]: > 100 µM

CS(=O)(=O)Nc1cncc(-c2ccc3ncnc(Nc4ccc(F)c(Cl)c4)c3c2)c1
GI50 [1]: 3.73 µM | TGI [1]: 23.7 µM | GI50 [2]: 2.41 µM | TGI [2]: 13.1 µM | GI50 [3]: 4.59 µM | TGI [3]: 23 µM | GI50 [4]: 1.73 µM | TGI [4]: 10.2 µM | GI50 [5]: 2.69 µM | TGI [5]: 15 µM | GI50 [6]: 2.08 µM | TGI [6]: 13.6 µM | GI50 [7]: 0.189 µM | TGI [7]: 2.5 µM | GI50 [8]: 2.09 µM | TGI [8]: 18.1 µM

CCN1C/C(=C\c2cc(OC)c(OC)cc2OC)C(=O)/C(=C/c2cc(OC)c(OC)cc2OC)C1
GI50 [1]: 3.43 µM | TGI [1]: > 100 µM | GI50 [2]: 3.43 µM | TGI [2]: 15.4 µM | GI50 [3]: 4.32 µM | TGI [3]: 28 µM | GI50 [4]: 2.25 µM | TGI [4]: 5.55 µM | GI50 [5]: 4.25 µM | TGI [5]: > 100 µM | GI50 [6]: 1.94 µM | TGI [6]: 3.59 µM | GI50 [7]: 2.96 µM | TGI [7]: > 100 µM | GI50 [8]: 4.23 µM | TGI [8]: 23.7 µM

CCN(Cc1ccc(C)cc1)c1ccc(CO)c(Cl)c1
GI50 [1]: 10.6 µM | TGI [1]: 26.1 µM | GI50 [2]: 9.95 µM | TGI [2]: 25.3 µM | GI50 [3]: 0.134 µM | TGI [3]: 0.339 µM | GI50 [4]: 7.05 µM | TGI [4]: 19.9 µM | GI50 [5]: 13.3 µM | TGI [5]: 29.5 µM | GI50 [6]: 15.5 µM | TGI [6]: 32.2 µM | GI50 [7]: 0.149 µM | TGI [7]: 0.623 µM | GI50 [8]: 14.5 µM | TGI [8]: 31.1 µM

CCN1C(=S)N(c2ccccc2)C2NC(=S)N(/N=C/C=C/c3ccccc3OC)C21 (configuration not stated)
GI50 [1]: 0.487 µM | TGI [1]: > 100 µM | GI50 [2]: 0.658 µM | TGI [2]: > 100 µM | GI50 [3]: > 100 µM | TGI [3]: > 100 µM | GI50 [4]: 0.482 µM | TGI [4]: > 100 µM | GI50 [5]: 0.398 µM | TGI [5]: > 100 µM | GI50 [6]: 0.957 µM | TGI [6]: > 100 µM | GI50 [7]: > 100 µM | TGI [7]: > 100 µM | GI50 [8]: 0.496 µM | TGI [8]: > 100 µM

CC(=O)c1ccc2c(c1)c1cc(C(C)=O)ccc1n2CCNC(C)C
GI50 [1]: 0.373 µM | TGI [1]: 3.87 µM | GI50 [2]: 0.389 µM | TGI [2]: 2.41 µM | GI50 [3]: 0.296 µM | TGI [3]: 1.31 µM | GI50 [4]: 0.211 µM | TGI [4]: 0.526 µM | GI50 [5]: 0.317 µM | TGI [5]: 1.76 µM | GI50 [6]: 0.23 µM | TGI [6]: 0.596 µM | GI50 [7]: 0.523 µM | TGI [7]: 13 µM | GI50 [8]: 0.3 µM | TGI [8]: 1.62 µM

O=c1[nH]c2ccccc2c2ccccc12
GI50 [1]: > 100 µM | TGI [1]: > 100 µM | GI50 [2]: > 100 µM | TGI [2]: > 100 µM | GI50 [4]: > 100 µM | TGI [4]: > 100 µM | GI50 [5]: > 100 µM | TGI [5]: > 100 µM | GI50 [6]: > 100 µM | TGI [6]: > 100 µM | GI50 [7]: > 100 µM | TGI [7]: > 100 µM | GI50 [8]: > 100 µM | TGI [8]: > 100 µM

CCOC(=O)/C(=C/N1CCN(C(=O)c2ccco2)C1=S)C(=O)c1ccccc1
GI50 [1]: 11.7 µM | TGI [1]: 35.2 µM | GI50 [2]: 7.7 µM | TGI [2]: 14.7 µM | GI50 [4]: 6.48 µM | TGI [4]: 14.2 µM | GI50 [5]: 19.4 µM | TGI [5]: > 50 µM | GI50 [6]: 13.3 µM | TGI [6]: 48.4 µM | GI50 [7]: 4.08 µM | TGI [7]: > 50 µM | GI50 [8]: 35.6 µM | TGI [8]: > 50 µM
